Measurements taken from ChEMBL document CHEMBL5346964, “Discovery of LNP1892: A Precision Calcimimetic for the Treatment of Secondary Hyperparathyroidism” (J Med Chem, 2023).

How the values were obtained:
[1] = Ratio of drug concentration in blood to plasma in rat; type: ADME, cell-free
[2] = Metabolic stability in dog liver cytosol measured upto 60 mins by LC-MS/MS method; type: ADME, subcellular, Canis lupus familiaris; details: read-out: Stability
CYP2C19 = CYP2C19 (Homo sapiens, UniProt P33261); assay: Inhibition of CYP2C19 in human liver microsomes at 10 uM preincubated for 5 mins followed by NADPH addition by LC-MS/MS analysis relative to control; type: ADME, Microsome
Sequence of CYP2C19 (P33261 whole entry): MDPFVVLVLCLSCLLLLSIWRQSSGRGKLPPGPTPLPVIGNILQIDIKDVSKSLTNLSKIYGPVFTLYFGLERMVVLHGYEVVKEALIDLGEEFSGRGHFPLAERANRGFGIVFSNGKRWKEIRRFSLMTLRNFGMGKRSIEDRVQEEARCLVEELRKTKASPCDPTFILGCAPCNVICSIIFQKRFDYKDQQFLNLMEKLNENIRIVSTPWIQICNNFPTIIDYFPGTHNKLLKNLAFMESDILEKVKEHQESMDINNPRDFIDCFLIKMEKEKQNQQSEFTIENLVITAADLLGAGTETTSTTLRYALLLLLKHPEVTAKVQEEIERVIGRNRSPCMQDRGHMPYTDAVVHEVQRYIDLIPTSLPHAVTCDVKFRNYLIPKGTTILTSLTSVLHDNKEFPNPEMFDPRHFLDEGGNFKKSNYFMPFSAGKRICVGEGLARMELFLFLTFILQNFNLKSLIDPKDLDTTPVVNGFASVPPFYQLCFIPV

[3] = Effect on parathyroid hormone in overnight fasted Sprague-Dawley rat assessed as reduction in plasma PTH level at 10 mg/kg, po measured after 2 hrs of post treatment by sandwich ELISA analysis; type: functional; parameters: scale not given: the % may be the effect or the level left
[4] = Tmax in Sprague-Dawley rat at 1 mg/kg, iv measured upto 24 hrs by LC-MS/MS analysis; type: ADME, organism-based; details: in vivo
[5] = Tmax in Sprague-Dawley rat at 30 mg/kg; type: ADME, organism-based; details: in vivo
[6] = Oral bioavailability in Beagle dog at 5 mg/kg measured upto 24 hrs by LC/MS-MS analysis; type: ADME, organism-based, Canis lupus familiaris; details: in vivo
[7] = Volume of distribution at steady state in Beagle dog at 1 mg/kg, iv measured upto 24 hrs by LC/MS-MS analysis; type: ADME, organism-based, Canis lupus familiaris; details: in vivo, read-out: Vdss
[8] = Metabolic stability in human liver cytosol measured upto 60 mins by LC-MS/MS method; type: ADME, subcellular; details: read-out: Stability
[9] = Chemical stability of the compound in FeSSIF measured after 0.5 to 4 hrs; type: physicochemical; details: simulated gi fluid; time 0.5-4 hrs
Rattus norvegicus [10] = assay: Acute effect on parathyroid hormone in overnight fasted adenine diet-induced chronic kidney disease Wistar rat model plasma assessed as reduction in plasma PTH level at 1 mg/kg, po measured after 4 hrs of post treatment by sandwich ELISA analysis; type: functional; parameters: scale not given: the % may be the effect or the level left
[11] = Drug excretion in rat assessed as drug recovery in feces at 1 mg/kg, iv; type: ADME, organism-based; details: faeces, read-out: Drug recovery
[12] = Chemical stability of the compound in 0.1N NaOH measured after 0.5 to 4 hrs; type: physicochemical; details: time 0.5-4 hrs
[13] = AUClast in Sprague-Dawley rat at 10 mg/kg, po administered as solution measured upto 24 hrs by LC-MS/MS analysis; type: ADME, organism-based; parameters: dose 10 mg/kg, time < 24 hrs, route po; details: in vivo
[14] = Plasma protein binding in human; type: ADME; details: read-out: PPB
[15] = AUC in BALB/c mouse at 10 mg/kg, po measured upto 24 hrs by LC/MS-MS analysis; type: ADME, organism-based; parameters: time < 24 hrs, dose 10 mg/kg, route po; details: in vivo
[16] = Metabolic stability in mouse liver cytosol measured upto 60 mins by LC-MS/MS method; type: ADME, subcellular; details: read-out: Stability
[17] = Tmax in Sprague-Dawley rat at 300 mg/kg; type: ADME, organism-based; details: in vivo
[18] = biological target: T1, Adenosine receptor A1 (Homo sapiens) (UniProt P30542); assay: Inhibition of human recombinant A1 receptor at 10 uM relative to control
T1 sequence (whole entry): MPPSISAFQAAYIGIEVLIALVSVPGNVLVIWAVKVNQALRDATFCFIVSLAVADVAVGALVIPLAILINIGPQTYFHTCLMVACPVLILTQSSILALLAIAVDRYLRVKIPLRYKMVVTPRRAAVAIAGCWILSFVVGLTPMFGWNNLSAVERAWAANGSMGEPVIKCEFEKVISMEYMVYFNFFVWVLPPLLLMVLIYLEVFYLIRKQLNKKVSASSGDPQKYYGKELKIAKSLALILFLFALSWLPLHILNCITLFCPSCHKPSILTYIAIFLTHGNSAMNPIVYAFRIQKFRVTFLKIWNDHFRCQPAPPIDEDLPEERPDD

[19] = Cmax in cynomolgus monkey at 5 mg/kg, po measured upto 24 hrs by LC/MS-MS analysis; type: ADME, organism-based, Macaca fascicularis; parameters: time < 24 hrs, dose 5 mg/kg, route po; details: in vivo
Rattus norvegicus [20] = assay: Subchronic effect on parathyroid hormone in overnight fasted adenine diet-induced chronic kidney disease Wistar rat model plasma assessed as reduction in plasma PTH level at 1 mg/kg, po qd measured after 27 days of post treatment by sandwich ELISA analysis; type: functional; parameters: scale not given: the % may be the effect or the level left; details: time 27 day
[21] = Half life in BALB/c mouse at 1 mg/kg, iv measured upto 24 hrs by LC/MS-MS analysis; type: ADME, organism-based; details: in vivo
[22] = Ratio of drug concentration in blood to thyroid in Sprague-Dawley rat at 10 mg/kg, po measured upto 24 hrs by LC-MS/MS analysis; type: ADME, organism-based; details: in vivo
[23] = Cmax in Beagle dog at 5 mg/kg, po measured upto 24 hrs by LC/MS-MS analysis; type: ADME, organism-based, Canis lupus familiaris; parameters: dose 5 mg/kg, time < 24 hrs, route po; details: in vivo
[24] = Chemical stability of the compound at pH 9 measured after 0.5 to 4 hrs; type: physicochemical; details: buffer, time 0.5-4 hrs
CYP3A4 = CYP3A4 (Homo sapiens, UniProt P08684); assay: Inhibition of CYP3A4 in human liver microsomes at 10 uM preincubated for 5 mins followed by NADPH addition by LC-MS/MS analysis relative to control; type: ADME, Microsome
Sequence of CYP3A4 (P08684 whole entry): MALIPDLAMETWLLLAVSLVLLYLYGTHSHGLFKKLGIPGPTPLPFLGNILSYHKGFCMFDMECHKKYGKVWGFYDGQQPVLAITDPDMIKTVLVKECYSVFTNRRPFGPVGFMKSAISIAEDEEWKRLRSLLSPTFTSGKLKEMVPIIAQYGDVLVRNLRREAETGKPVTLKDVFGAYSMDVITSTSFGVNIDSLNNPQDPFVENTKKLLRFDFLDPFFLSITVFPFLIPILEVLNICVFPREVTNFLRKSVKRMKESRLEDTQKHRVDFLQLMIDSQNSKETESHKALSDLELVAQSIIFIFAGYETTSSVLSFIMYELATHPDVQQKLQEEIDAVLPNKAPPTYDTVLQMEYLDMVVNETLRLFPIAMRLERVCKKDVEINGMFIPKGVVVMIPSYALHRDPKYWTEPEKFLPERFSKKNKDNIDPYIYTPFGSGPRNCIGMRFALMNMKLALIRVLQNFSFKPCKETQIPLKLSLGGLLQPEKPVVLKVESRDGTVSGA

[25] = Cmax in Sprague-Dawley rat at 300 mg/kg; type: ADME, organism-based; parameters: dose 300 mg/kg; details: in vivo
[26] = Tmax in Sprague-Dawley rat at 10 mg/kg, po measured upto 24 hrs by LC/MS-MS analysis; type: ADME, organism-based; details: in vivo
[27] = Oral bioavailability in BALB/c mouse at 10 mg/kg measured upto 24 hrs by LC/MS-MS analysis; type: ADME, organism-based; details: in vivo
[28] = Cmax in BALB/c mouse at 10 mg/kg, po measured upto 24 hrs by LC/MS-MS analysis; type: ADME, organism-based; parameters: dose 10 mg/kg, time < 24 hrs, route po; details: in vivo
[29] = Cmax in Sprague-Dawley rat at 10 mg/kg, po administered as suspension measured upto 24 hrs by LC-MS/MS analysis; type: ADME, organism-based; parameters: dose 10 mg/kg, time < 24 hrs, route po; details: in vivo
[30] = AUC(0 to t) in rat at 25 mg/kg per day, po via gavage administered for 13 weeks; type: ADME, organism-based; parameters: dose 25 mg/kg, time 13 weeks, route po; details: in vivo
[31] = AUC(0 to 24 hrs) in Sprague-Dawley rat at 300 mg/kg; type: ADME, organism-based; parameters: dose 300 mg/kg; details: in vivo
[32] = Volume of distribution at steady state in Sprague-Dawley rat at 1 mg/kg, iv measured upto 24 hrs by LC/MS-MS analysis; type: ADME, organism-based; details: in vivo, read-out: Vdss
[33] = Stability in dog plasma measured up to 4 hrs by LC-MS/MS method; type: ADME, cell-free, Canis lupus familiaris; details: read-out: Stability
[34] = Kinetic solubility of compound upto 500 uM at pH 9 measured after 16 hrs under shaking condition by UV-visible method; type: physicochemical; details: buffer, read-out: Kinetic_solubility
[35] = Volume of distribution at steady state in BALB/c mouse at 1 mg/kg, iv measured upto 24 hrs by LC/MS-MS analysis; type: ADME, organism-based; details: in vivo, read-out: Vdss
[36] = Genotoxicity in Salmonella typhimurium by Ames test; type: toxicity; details: salmonella enterica subsp. enterica serovar typhimurium
[37] = Toxicity in rat assessed as maximum tolerated dose; details: in vivo
[38] = Effect on parathyroid hormone in overnight fasted Sprague-Dawley rat assessed as reduction in plasma PTH level at 10 mg/kg, po measured after 4 hrs of post treatment by sandwich ELISA analysis (reference value: 18%); type: functional; parameters: scale not given: the % may be the effect or the level left
[39] = AUC in cynomolgus monkey at 5 mg/kg, po measured upto 24 hrs by LC/MS-MS analysis; type: ADME, organism-based, Macaca fascicularis; parameters: dose 5 mg/kg, time < 24 hrs, route po; details: in vivo
[40] = AUC in Sprague-Dawley rat at 10 mg/kg, po measured upto 24 hrs by LC/MS-MS analysis; type: ADME, organism-based; parameters: time < 24 hrs, dose 10 mg/kg, route po; details: in vivo
[41] = Drug excretion in rat assessed as drug recovery in feces at 10 mg/kg, po; type: ADME, organism-based; details: faeces, read-out: Drug recovery

## Cc1ccc([C@@H]2C[C@H](CN[C@H](C)c3cccc4ccccc34)Oc3ccccc32)cc1C(=O)O.Cl
[1]
  blood plasma ratio: 0.64
[2]
  remaining at 1 h: > 80%
CYP2C19
  inhibition at 10 µM: 7%
[3]
  Activity: 99%
[4]
  Tmax: 4.8 min
[5]
  Tmax: 30 min
[6]
  bioavailability: 79%
[7]
  Vd: 0.7 L/kg
[8]
  remaining at 1 h: > 80%
[9]
  Stability: Stable
Rattus norvegicus [10]
  Activity: 84%
[11]
  dose excreted: 10%
[12]
  Stability: Stable
[13]
  AUC(0-t) at 24 h: 71 µM·h
[14]
  fraction unbound: < 0.01
[15]
  AUC at 24 h: 171 µM·h
[16]
  remaining at 1 h: > 80%
[17]
  Tmax: 60 min
[18]
  inhibition: > 50%
[19]
  Cmax: 0.4 µM
Rattus norvegicus [20]
  Activity: 83%
[21]
  half-life: 180 min
[22]
  Ratio: 0.3
[23]
  Cmax: 11 µM
[24]
  Stability: Stable
CYP3A4
  inhibition at 10 µM: 0%
[25]
  Cmax: 72 µM
[26]
  Tmax: 36 min
[27]
  bioavailability: 100%
[28]
  Cmax: 31 µM
[29]
  Cmax: 4 µM
[30]
  AUC(0-t) at 2184 h: 98900 ng·h/mL
[31]
  AUC(0-t): 1020 µM·h
[32]
  Vd: 1 L/kg
[33]
  remaining at 4 h: > 80%
[34]
  solubility kinetic at 16 h, 500 µM: > 200 µM
[35]
  Vd: 0.6 L/kg
[36]
  Activity: Non-Toxic
[37]
  MTD: 1000 mg/kg
[38]
  Activity: 88%
[39]
  AUC at 24 h: 1.3 µM·h
[40]
  AUC at 24 h: 71 µM·h
[41]
  dose excreted: 3%
